Legend:
Format in all cases: in vivo
Nilaparvata lugens [1] = assay: Test Example 4: spray on rice seedling, release of Nilaparvata lugens larvae; conditions: 144 h; 500 ppm active ingredient; rice seedling sprayed with 10 ml; third-fourth instar larvae of Nilaparvata lugens; after 6 days at 25° C.; read-out: Control value
[2] = tested on: Adoxophyes orana fasciata; assay: Test Example 8: spray on apple tree, release of Adoxophyes orana fasciata; conditions: in Malus domestica, 168 h; 500 ppm active ingredient; apple tree sprayed with 20 mL/cup; 60 first-instar Adoxophyes orana fasciata; after 7 days; read-out: Death rate
Protocol: On the other hand, an apple tree was planted in a plastic cup, and grown until the seventh-eighth leaf was spread. The apple tree was sprayed with 20 mL/cup of each of the test spray solution. After the test solution was dried, 60 first-instar Adoxophyes orana fasciata were released, and the cup was covered with a plastic cup upside-down which the bottom was cut off and a filter paper was put thereon. After 7 days, the number of living insects was counted, and a death rate was calculated according to the following equation: Death rate (%)=(Number of dead insects/Number of tested insects)×100

Aphis gossypii [3] = assay: Test Example 2: root immersion of cucumber seedling, then inoculation with Aphis gossypii; conditions: 168 h; 500 ppm active ingredient; cucumber root part immersed in 5 ml; 30 Aphis gossypii inoculated one day after treatment; examined after further seven days
Protocol: A root part of a cucumber seedling (the first true leaf stage) from which soil had been washed off was immersed in 5 ml of each of the diluted solutions, and one day after treatment, on the cucumber leaf surface was inoculated with 30 Aphis gossypii (whole stage). After further seven days, the number of insect of living Aphis gossypii parasitized on the leaves of the cucumber was examined, and a control value was calculated according to the following equation: Control value (%)={1−(Cb×Tai)/(Cai×Tb))×100 wherein symbols represent as follows: Cb: the number of insects in a non-treated section before treatment, Cai: the number of insects in a non-treated section in observation, Tb: the number of insects in a treated-section before treatment, Tai: the number of insects in a treated-section in observation; wherein the non-treated section represents a section where the test diluted solution prepared by diluting the formulation without the present compound in Formulation Example 5 with the same amount of water as in the treated-section was used.

Aphis gossypii [4] = assay: Test Example 1: spray on cucumber seedling inoculated with Aphis gossypii; conditions: topical, 144 h; 500 ppm active ingredient (Formulation Example 5 diluted with water); 20 ml sprayed on cucumber seedling with about 30 Aphis gossypii; six days after spraying
Protocol: On the other hand, on a cucumber seedling (the first true leaf stage) planted in a plastic cup was inoculated with about 30 Aphis gossypii, and leaving it for a day. Twenty ml of each of the above test spray solutions was sprayed on this seedling. Six days after spraying, the number of the surviving Aphis gossypii parasitized on the leaves of the cucumber was examined, and a control value was calculated according to the following equation: Control value (%)={1−(Cb×Tai)/(Cai×Tb))×100 wherein symbols represent as follows: Cb: the number of insects in a non-treated section before treatment, Cai: the number of insects in a non-treated section in observation, Tb: the number of insects in a treated-section before treatment, Tai: the number of insects in a treated-section in observation; wherein the non-treated section represents a section where the test spray solution prepared by diluting the formulation without the present compound in Formulation Example 5 with the same amount of water as in the treated-section was sprayed.

Bemisia tabaci = assay: Test Example 6: spray on tomato seedling with Bemisia tabaci instar larvae; conditions: 168 h; 500 ppm active ingredient; 20 ml/cup sprayed on tomato seedling with hatched Bemisia tabaci instar larvae; after 7 days at 25° C.
Protocol: On the other hand, Bemisia tabaci adult was released on a tomato seedling (the third true leaf stage) planted in a polyethylene cup, and made to lay eggs for about 72 hours. The tomato seedling was kept in a greenhouse for 8 days. When instar larvae hatched from the eggs, the above test spray solution was sprayed in the amount of 20 ml/cup. The cup was kept in a greenhouse at 25° C. After the keeping for 7 days, the number of surviving instar larvae on the tomato leaves was examined, and a control value was calculated according to the following equation: Control value (%)={1−(Cb×Tai)/(Cai×Tb))×100 wherein symbols represent as follows: Cb: the number of insects in a non-treated section before treatment, Cai: the number of insects in a non-treated section in observation, Tb: the number of insects in a treated-section before treatment, Tai: the number of insects in a treated-section in observation; wherein the non-treated section represents a section where the test spray solution prepared by diluting the formulation without the present compound in Formulation Example 5 with the same amount of water as in the treated-section was sprayed.

Nilaparvata lugens [5] = assay: Test Example 5: drench at foot of rice seedling, release of Nilaparvata lugens larvae; conditions: soil, 144 h; 500 ppm active ingredient; rice seedling drenched at its foot with 5 ml, kept 7 days; twenty third-fourth instar larvae of Nilaparvata lugens; examined after 6 days
Protocol: On the other hand, a rice seedling (2 weeks after sowing, the second leaf stage) planted in a plastic cup was drenched at its foot with 5 ml of each of the diluted solutions, and kept in a greenhouse of 25° C. for 7 days. Twenty third-fourth instar larvae of Nilaparvata lugens were released, and further kept in the greenhouse for 6 days, then the number of insect of living Nilaparvata lugens parasitized on the rice was examined, and a control value was calculated according to the following equation: Control value (%)={1−(Cb×Tai)/(Cai×Tb))×100 wherein symbols represent as follows: Cb: the number of insects in a non-treated section before treatment, Cai: the number of insects in a non-treated section in observation, Tb: the number of insects in a treated-section before treatment, Tai: the number of insects in a treated-section in observation; wherein the non-treated section represents a section where the test diluted solution prepared by diluting the formulation without the present compound in Formulation Example 5 with the same amount of water as in the treated-section was used.

Structure (SMILES) | pest or weed control at 500 ppm (Nilaparvata lugens [1]) | pest or weed control at 500 ppm [2] | pest or weed control at 500 ppm (Bemisia tabaci) | further results
CC(C)S(=O)(=O)c1ccccc1-c1nc2cc(C(F)(F)F)cnc2n1C [Present Compound 14, 2-(2-isopropylsulfonylphenyl)-3-methyl-6-trifluoromethyl-3H-imidazo[4,5-b]pyridine] | ≥ 90% | ≥ 90% |  | pest or weed control at 500 ppm (Aphis gossypii [3]): ≥ 90%
CC[S+]([O-])c1ccccc1-c1nc2cc(C(F)(F)F)cc(Br)c2n1C (stereo not shown) [Present Compound 75, 7-bromo-2-(2-ethylsulfinylphenyl)-1-methyl-5-trifluoromethyl-1H-benzimidazole] |  |  | ≥ 90% | pest or weed control at 500 ppm (Aphis gossypii [4]): ≥ 90%
CCS(=O)(=O)c1cc(C(F)(F)F)ccc1-c1nc2cc(C(F)(F)F)cnc2s1 [compound 251, 2-[2-ethylsulfonyl-4-(trifluoromethyl)phenyl]-6-(trifluoromethyl)thiazolo[5,4-b]pyridine] | ≥ 90% | ≥ 90% |  | pest or weed control at 500 ppm (Nilaparvata lugens [5]): ≥ 90%
Cn1c(-c2ccccc2S(=O)(=O)CC(F)(F)F)nc2cc(C(F)(F)F)cnc21 [compound 188] | ≥ 90% |  | ≥ 90% | pest or weed control at 500 ppm (Aphis gossypii [4]): ≥ 90%
CC[S+]([O-])c1ccccc1-c1nc2cc(C(F)(F)F)cnc2n1C(C)C (stereo not shown) [Present Compound 28, 2-(2-ethylsulfinylphenyl)-3-isopropyl-6-trifluoromethyl-3H-imidazo[4,5-b]pyridine] |  | ≥ 90% |  | 
CCSc1ccccc1-c1nc2cc(C(F)(F)F)cnc2n1CC [Present Compound 21, 3-ethyl-2-(2-ethylsulfanylphenyl)-6-trifluoromethyl-3H-imidazo[4,5-b]pyridine] | ≥ 90% |  | ≥ 90% | 
CCSc1c(Cl)cccc1-c1nc2cc(C(F)(F)F)cnc2n1C [Present Compound 88, 2-(3-chloro-2-ethylsulfanylphenyl)-3-methyl-6-trifluoromethyl-3H-imidazo[4,5-b]pyridine] |  |  | ≥ 90% | pest or weed control at 500 ppm (Aphis gossypii [3]): ≥ 90%
C=CCS(=O)(=O)c1ccccc1-c1nc2cc(C(F)(F)F)cnc2n1C [Present Compound 11, 2-(2-allylsulfonylphenyl)-3-methyl-6-trifluoromethyl-3H-imidazo[4,5-b]pyridine] |  | ≥ 90% |  | 
CC(C)[S+]([O-])c1ccccc1-c1nc2cc(C(F)(F)F)cnc2n1C (stereo not shown) [Present Compound 13, 2-(2-isopropylsulfinylphenyl)-3-methyl-6-trifluoromethyl-3H-imidazo[4,5-b]pyridine] |  | ≥ 90% |  | pest or weed control at 500 ppm (Aphis gossypii [3]): ≥ 90%
CC[S+]([O-])c1ccccc1-c1nc2cc(C(F)(F)F)cnc2n1C1CC1 (stereo not shown) [Present Compound 31, 3-cyclopropyl-2-(2-ethylsulfinylphenyl)-6-trifluoromethyl-3H-imidazo[4,5-b]pyridine] |  | ≥ 90% |  | 
CCn1c(-c2ccccc2[S+]([O-])CC)nc2cc(C(F)(F)F)cnc21 (stereo not shown) [Present Compound 22, 2-(2-ethylsulfinylphenyl)-3-ethyl-6-trifluoromethyl-3H-imidazo[4,5-b]pyridine] |  | ≥ 90% | ≥ 90% | 
CCn1c(-c2ccccc2S(=O)(=O)CC)nc2cc(C(F)(F)F)cnc21 [Present Compound 23, 2-(2-ethylsulfonylphenyl)-3-ethyl-6-trifluoromethyl-3H-imidazo[4,5-b]pyridine] |  | ≥ 90% |  | 
CCS(=O)(=O)c1cc(S(F)(F)(F)(F)F)ccc1-c1nc2cc(C(F)(F)F)cnc2n1C [compound 343, 2-(2-ethylsulfonyl-4-(pentafluorosulphur)phenyl)-3-methyl-6-trifluoromethyl-3H-imidazo[4,5-b]pyridine] | ≥ 90% |  | ≥ 90% | pest or weed control at 500 ppm (Nilaparvata lugens [5]): ≥ 90%; pest or weed control at 500 ppm (Aphis gossypii [4]): ≥ 90%
CCS(=O)(=O)c1ccccc1-c1nc2cc(C(F)(F)F)cnc2n1C(C)C [Present Compound 29, 2-(2-ethylsulfonylphenyl)-3-isopropyl-6-trifluoromethyl-3H-imidazo[4,5-b]pyridine] |  | ≥ 90% |  | 

Reference: patent US8853238B2, “Fused heterocyclic compound and use thereof for pest control” (Sumitomo Chemical Company, Limited, priority 2010, dated 2014)
